“Also recorded” adds a separate entry of the source.
Experiments:
[1] = target: T1, human constitutive 20S proteasome impaired by α-synuclein oligomer mixture (Homo sapiens, UniProt P25787+P25789); test: IDP oligomer inhibition in fluorogenic peptide degradation assay (α-synuclein oligomers); assay type: biochemical; details: 1-10 μM, concentration dependent; CT-L substrate; 500 nM α-synuclein oligomers
T1 construct: purchased Boston Biochem, Inc. (Cambridge, Mass.)
Protocol: IDP oligomer Inhibition in fluorogenic peptide degradation assay. Assays were carried out in a 100 μL reaction volume. Different concentrations (1-10 μM) of test compounds were added to a black flat/clear bottom 96-well plate containing 1 nM of human constitutive 20S proteasome, in 50 mM Tris-HCl at pH 7.8 and allowed to incubate for 15 min at 37° C. Then, 1 μL of α-synuclein or amyloid beta oligomer mixture of was added to each sample to a final concentration of 500 nM for α-synuclein and 2.5 μM for amyloid beta. This mixture was then allowed to incubate again for 15 min at 37° C. Next, 10 μL of CT-L fluorogenic substrate was added to a final concentration of 20 μM. The enzymatic activity was measured at 37° C. on a SpectraMax M5e spectrometer by measuring the change in fluorescence unit per minute for 1 hour at 380-460 nm. The fluorescence units for the vehicle control were set at a 100%, and the ratio of drug-treated or just oligomer-treated samples to the vehicle control was used to calculate the relative enzymatic activity.

[2] = target: T2, purified human 20S proteasome (Homo sapiens, UniProt P25787+P25789); test: In vitro purified α-synuclein oligomer degradation assay (western blot); assay type: biochemical; details: 24 hours incubation with 20S proteasome
T2 construct: purchased Boston Biochem, Inc. (Cambridge, Mass.)
Protocol: In vitro purified α-synuclein oligomer degradation assay (western blot). Digestion of α-synuclein oligomer mixture was carried out in a 50 μL reaction volume made of 50 mM Tris at pH 7.8; 0.33 μM α-synuclein oligomer mixture and 6.7 nM purified human 20S proteasome. Briefly, 20S proteasome was diluted to 7.58 nM in the reaction buffer. Fluspirilene or vehicle (1 μL of 50×stock or DMSO) were added to 44 μL of 7.58 nM 20S and incubated at 37° C. for 20 min. The substrate (5 μL of 3.3 μM synuclein oligomer mixture) was then added to the reaction mixture and incubated at 37° C. for 24 hours. The reactions were then quenched with concentrated SDS loading buffer. Samples were resolved on a 4-20% Tris-glycine SDS-PAGE and immunoblotted with mouse monoclonal anti α-synuclein IgG (1:2000) and anti-mouse HRP-linked IgG (1:2000). Blots were developed with ECL western reagent and imaged with an Azure Biosystems 3000 imager.

[3] = target: T3, human constitutive 20S proteasome impaired by amyloid beta oligomer mixture (Homo sapiens, UniProt P25787+P25789); test: IDP oligomer inhibition in fluorogenic peptide degradation assay (amyloid beta oligomers); assay type: biochemical; details: 1-10 μM, concentration dependent; CT-L substrate; 2.5 μM amyloid beta
T3 construct: purchased Boston Biochem, Inc. (Cambridge, Mass.)
Protocol: Amylold beta aggregate preparation. Synthetic amyloid beta was purchased from Eurogentec. To remove preexisting aggregates, synthetic amyloid beta peptide was dissolved in 100% hexafluoroisopropanol (HFIP) and incubated at 37° C. for 2 h. The HFIP was removed and the remaining peptide films were stored at −80° C. until use. Aggregates were prepared by resuspending amyloid beta films with DMSO (50 μL per 1 mg of peptide), followed by addition of ultrapure H2O (800 μL) and rapid addition of 2 M Tris-base (10 μL) at pH 7.6. The solution was then vortexed for 5 seconds and allowed to incubate at room temperature for 5 minutes. The Amyloid beta mixture was then diluted to the desired concentration and used immediately.
IDP oligomer Inhibition in fluorogenic peptide degradation assay. Assays were carried out in a 100 μL reaction volume. […] The enzymatic activity was measured at 37° C. on a SpectraMax M5e spectrometer by measuring the change in fluorescence unit per minute for 1 hour at 380-460 nm. The fluorescence units for the vehicle control were set at a 100%, and the ratio of drug-treated or just oligomer-treated samples to the vehicle control was used to calculate the relative enzymatic activity.

[4] = system: A53T α-synuclein in transiently transfected HEK-293T cells; test: A53T α-synuclein digestion in HEK-293T cells; assay type: cell-based, human; details: for accumulation of A53T α-synuclein protein: 10 or 30 μM, 8 hours, with cycloheximide 100 μg/mL, concentration dependent
Protocol: Cell culture. Human embryonic kidney cells (HEK293T) were maintained in Dulbecco's modified Eagle's medium (DMEM) supplemented with 10% fetal bovine serum and 100 units/mL penicillin/streptomycin, at 37° C. with 5% CO2.
Transient transfection of A53T α-synuclein plasmid Into HEK-293T cells. Cells were grown according using the methods stated above to ˜50-70% confluency. At this point plasmid prepared with Xfect transfection agent (prepared following manufacturers protocol) was added to the HEK-293 cells and incubated for 4 hours. The media was then replaced with fresh culture media and the cells were returned to the incubator for 24 hours prior to treatment.
A53T α-synuclein digestion in HEK-293T cells. HEK-293T cells were transfected as described above and incubated for 24 hours. The cells were then treated with 100 μg/mL of cycloheximide, in combination with either vehicle (DMSO), fluspirilene (10 or 30 μM), N-acylated fluspirilene (10 or 30 μM), bortezomib (100 nM), or a combination thereof for 8 hours. The cells were then lysed using RIPA buffer and the manufacturers protocol. A BCA assay was performed to quantify protein levels and the lysates were normalized to desired concentrations prior to electrophoresis and western blot analysis, performed as described previously.

[5] = target: T4, human constitutive 20S proteasome (Homo sapiens, UniProt P25787+P25789); test: Fluorogenic peptide degradation 20S proteasome activity assay; assay type: biochemical; details: for 20S proteasome activity (in words): 0-80 μM; for AC200 (concentration achieving a doubling of 20S activity): combination of the three fluorogenic substrates (CT-L, T-L, Casp-L)
T4 construct: purchased Boston Biochem, Inc. (Cambridge, Mass.)
Protocol: Fluorogenic peptide degradation 20S proteasome activity assay. Activity assays were carried out in a 100 μL reaction volume. Different concentrations (1-80 μM) of test compounds were added to a black flat/clear bottom 96-well plate containing 1 nM of human constitutive 20S proteasome, in 50 mM Tris-HCl at pH 7.8, 100 mM NaCl and allowed to incubate for 15 min at 37° C. Fluorogenic substrates were then added and the enzymatic activity measured at 37° C. on a SpectraMax M5e spectrometer by measuring the change in fluorescence unit per minute for 1 hour at 380-460 nm. The fluorescence units for the vehicle control were set at a 100%, and the ratio of drug-treated sample set to that of vehicle control was used to calculate the fold change in enzymatic activity. The fluorogenic substrates used were one of the following: Suc-LLVY-AMC (CT-L activity, 20 μM), Z-LLE-AMC (Casp-L activity, 20 μM), Boc-LRR-AMC (T-L activity, 40 μM) or a combination of the three substrates each at 6.67 μM.

26S proteasome = 26S proteasome (Homo sapiens, UniProt P25787+P25789); test: Proteolysis of fluorogenic peptide substrates by purified 26S proteasome; assay type: biochemical; details: 0-80 μM
Protocol: FIG. 1A is a plot showing the rate of proteolysis of fluorogenic peptide substrates by purified 20S and 26S proteasome in the presence of a concentration response (0-80 μM) of fluspirilene. […] Error bars denote standard deviation.
The small molecule antipsychotic drug fluspirilene was identified as a promising new scaffold for the development of 20S activators due to its strong enhancement of 20S proteolysis. To assess fluspirilene's 20S proteasome activity, a series of assays were performed using each of three fluorogenic peptide substrates. These substrates were a chymotryptic-like (CT-L), a trypsin-like (T-L) and a caspase-like (Casp-L) substrate, one for each of the catalytic sites of the proteasome. It has been shown that the proteasome's active sites allosterically regulate each other in the presence of their individual substrates. Therefore, a combination of the three probes to represent the overall activity of a 20S activator more accurately in a system in which all catalytic sites are interacting.

dopamine D2 receptor = dopamine D2 receptor (Homo sapiens, UniProt P14416); details: cited from earlier work
Sequence of dopamine D2 receptor (P14416 whole entry, species assumed): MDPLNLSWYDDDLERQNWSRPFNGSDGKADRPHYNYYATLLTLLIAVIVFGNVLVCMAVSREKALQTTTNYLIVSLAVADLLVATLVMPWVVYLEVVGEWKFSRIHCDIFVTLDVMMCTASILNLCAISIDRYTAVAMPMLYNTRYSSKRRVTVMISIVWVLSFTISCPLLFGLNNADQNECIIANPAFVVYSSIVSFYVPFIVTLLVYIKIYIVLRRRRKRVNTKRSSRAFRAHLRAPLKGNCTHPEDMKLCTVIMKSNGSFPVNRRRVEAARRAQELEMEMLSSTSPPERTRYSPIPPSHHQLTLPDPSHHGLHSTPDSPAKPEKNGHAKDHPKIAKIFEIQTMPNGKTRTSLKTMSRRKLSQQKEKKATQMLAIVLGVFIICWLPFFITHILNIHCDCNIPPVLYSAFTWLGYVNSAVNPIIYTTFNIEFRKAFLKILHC

[6] = combination of the three catalytic site substrates

| prevention of 20S impairment by α-syn oligomers [1] | remaining α-syn oligomers relative to vehicle control [2] | prevention of 20S impairment by amyloid beta oligomers [3] | maximum fold enhancement [5, 6] [%] | AC200 (concentration achieving a doubling of 20S activity) [5] [µM] | max fold increases, increase over vehicle ([5]; for each substrate/combination) [%] | activation of the CT-L site relative to fluspirilene ([5]; individual CT-L fluorescent peptide probe) | AC200 at the CT-L site ([5]; individual CT-L substrate (Suc-LLVY-AMC)) [µM] | AC200 at the Casp-L site ([5]; individual Casp-L substrate (Z-LLE-AMC)) [µM] | activation of the T-L site relative to fluspirilene ([5]; individual T-L fluorescent peptide probe) | enhancement of the proteolytic activity of the 26S proteasome (26S proteasome) | activation of the catalytic sites of the 20S proteasome ([5]; CT-L, T-L and Casp-L substrates) | maximum fold enhancement ([5]; combination of probes, over vehicle control) [fold] | SMILES | accumulation of A53T α-synuclein protein [4] | effect on A53T α-synuclein when proteasome activity is blocked ([4]; in combination with bortezomib (100 nM)) | 20S proteasome activity (in words) [5, 6] | dopamine D2 receptor antagonism (dopamine D2 receptor) |
| --- | --- | --- | --- | --- | --- | --- | --- | --- | --- | --- | --- | --- | --- | --- | --- | --- | --- |
| prevented 20S impairment | reduction in overall α-syn oligomers | prevented 20S impairment | > 2000 | 1.9 | > 1500 | reduced activation | 4.7 | 4.1 | better activation | – | – | – | O=C(CCC(c1ccc(F)cc1)c1ccc(F)cc1)N1CCC2(CC1)C(=O)NCN2c1ccccc1 [Compound 16] | effectively reduced the accumulation | abrogated | promising; also recorded: excellent activity | – |
| prevented 20S impairment | reduction in overall α-syn oligomers | prevented 20S impairment | – | 2.2 | – | – | – | – | – | did not enhance | activates all three catalytic sites | ~10 | O=C1NCN(c2ccccc2)C12CCN(CCCC(c1ccc(F)cc1)c1ccc(F)cc1)CC2 [Fluspirilene, fluspirilene, reference compound] | effectively reduced the accumulation | – | promising | potent |
| – | – | – | – | – | – | – | – | – | – | – | – | – | O=C1NCN(c2ccccc2)C12CCN(CCC=C(c1ccc(F)cc1)c1ccc(F)cc1)CC2 [Compound 11] | – | – | lessened activity; also recorded: moderate activity | – |

Reference: patent US20230286982A1, “PROTEASOME ENHANCERS AND USES THEREOF” (Board of Trustees of Michigan State University, priority 2020, published 2023)
